Experimental data reported in US20190175766A1, “STABILIZED CROSSLINKED NANOBUBBLES FOR DIAGNOSTIC AND THERAPEUTIC APPLICATIONS” (CASE WESTERN RESERVE UNIVERSITY, priority 2016, published 2019).

What was measured:
LS174T cell line = assay: Cell toxicity test (WST-1); type: cell-based, human
Protocol: LS174-T human colorectal adenocarcinoma cells (ATCC, Manassas, Va.) were cultured in complete MEM medium (10% fetal bovine serum, 1% penicillin-streptomycin; Invitrogen, Carlsbad, Calif.) and placed in a humidified atmosphere at 37° C. and 5% CO2. Cells were passaged until they were 90% confluent, then detached with 0.25% trypsin-EDTA (Invitrogen, Carlsbad, Calif.).
One day prior to the treatment, cells were passaged at confluence and plated in flat bottom, clear, cell culture treated 96-well plates (Falcon, Franklin Lakes, N.J.) using a cell density of 2.5×10^4 cells/ml, 100 ul for each well overnight. After 24 h of incubation, the surface medium were aspirated carefully and cells were treated for 3 h as following groups: • 1 No treat Incomplete MEM medium were added. • 2. Dox 1 μg/ml Doxorubicin in incomplete MEM medium were added. • 3. Dox-NB 2000 times diluted original Dox-NB in incomplete MEM medium were added. • 4. […]
Plate wells were filled with relevant treatment medium, sealed with Parafilm® M (Fisher Scientific; Pittsburgh, Pa.), then inverted the plate to ensure the cells contact with Dox-NB for 20 min. […] After that, 1:10 diluted solution of WST-1 reagent ( ) replaced the medium and incubated for 1 h and then the plate was scanned with a TECAN plate reader (infinite M200, San Jose, Calif.) at 450 nm.

LS174-T cells = assay: Measurement of intracellular drug uptake; type: cell-based, human; conditions: with and without TUS
Protocol: LS174-T cells were grown in a 12-well cell culture plate at a cell concentration of 2.5×10^4 cells/ml one day before the treatment. The treatment groups were the same as cell toxicity test above. After 2 h treatment in incubator, the drugs were aspirated and washed with sterile PBS 3 times. The attached cells were fixed with 3% formaldehyde solution for 10 min. After 3 times wash with PBS, the cells of different treatment groups were imaged at 5× and 20× on the Zeiss Axio Observer Z1 motorized FL microscope with the same parameter and scanned zones. Average Dox fluorescence of cells in different treatment groups was calculated by ImageJ.

## COc1cccc2c1C(=O)c1c(O)c3c(c(O)c1C2=O)C[C@@](O)(C(=O)CO)C[C@@H]3O[C@H]1C[C@H](N)[C@H](O)[C@H](C)O1 [Dox, Doxorubicin]
LS174T cell line; plus therapeutic ultrasound (TUS) 3 MHz, 2 W/cm2, 1 min
  Fluorescence value (cell viability test): 0.28 ± 0.06
LS174T cell line; without TUS, Dox 1 μg/ml, Dox-NB 2000 times diluted
  Fluorescence value (cell viability test): 0.36 ± 0.10
LS174-T cells
  location of Dox in treated cells: mainly located in nuclei
